In ChEMBL document CHEMBL4350974, “Synthesis and biological evaluation of methylpyrimidine-fused tricyclic diterpene analogs as novel oral anti-late-onset hypogonadism agents” (Eur J Med Chem, 2019):
The source made the active and inactive calls. The calls are words filed in the database; no cut-off is given here.

How the values were obtained:
[1] = Cytotoxicity against mouse TM3 cells assessed as reduction in cell viability measured after 24 hrs by sulforhodamine B assay; format: cell-based
TM3 = assay: Induction of testosterone production in mouse TM3 cells assessed as increase in testosterone level at 20 uM measured after 24 hrs by ELISA relative to control; format: functional
Rattus norvegicus [2] = assay: Anti late-onset hypogonadism activity in cyclophosphamide-induced Sprague-Dawley rat model of partial androgen deficiency assessed as weight of seminal vesicles at 10 mg/kg, sc administered for every 3 days for 4 weeks Rvb = 1.33 +/- 0.26 g); format: functional
Rattus norvegicus [3] = assay: Anti late-onset hypogonadism activity in cyclophosphamide-induced Sprague-Dawley rat model of partial androgen deficiency assessed as increase in free testosterone level at 10 mg/kg, sc administered for every 3 days up to 4 weeks and measured every 2 weeks by ELISA; format: functional, organism-based
Rattus norvegicus [4] = assay: Anti late-onset hypogonadism activity in cyclophosphamide-induced Sprague-Dawley rat model of partial androgen deficiency assessed as increase in serum total testosterone level at 10 mg/kg, sc administered for every 3 days up to 4 weeks and measured every 2 weeks by ELISA; format: functional, organism-based
[5] = Toxicity in cyclophosphamide-induced Sprague-Dawley rat model of partial androgen deficiency assessed as decrease in body weight at 10 mg/kg, sc administered for every 3 days up to 4 weeks and measured every 3 days; format: organism-based; details: in vivo
Rattus norvegicus [6] = assay: Anti late-onset hypogonadism activity in cyclophosphamide-induced Sprague-Dawley rat model of partial androgen deficiency assessed as weight of testis at 10 mg/kg, sc administered for every 3 days for 4 weeks (reference value: 1.47 +/- 0.13 g); format: functional
Rattus norvegicus [7] = assay: Anti late-onset hypogonadism activity in cyclophosphamide-induced Sprague-Dawley rat model of partial androgen deficiency assessed as intratesticular testosterone level at 10 mg/kg, sc administered for every 3 days up to 4 weeks ELISA (reference value: 137.99 +/- 19.27 nmol/L); format: functional
Rattus norvegicus [8] = species on record: Rattus norvegicus; assay: Potency index, ratio of test compound effect to testosterone effect for anti late-onset hypogonadism activity in cyclophosphamide-induced Sprague-Dawley rat model of partial androgen deficiency assessed as inhibition of Leydig cells apoptosis; format: functional
Rattus norvegicus [9] = assay: Anti late-onset hypogonadism activity in cyclophosphamide-induced Sprague-Dawley rat model of partial androgen deficiency assessed as inhibition of Leydig cells apoptosis at 10 mg/kg, sc administered for every 3 days up to 4 weeks by DAPI staining based TUNEL assay; format: functional, organism-based
[10] = Toxicity in cyclophosphamide - induced Sprague-Dawley rat model of partial androgen deficiency assessed as sperm viability by semen analysis (reference value: 95.1 +/- 3.2 %)
[11] = Toxicity in cyclophosphamide - induced Sprague-Dawley rat model of partial androgen deficiency assessed as sperm motility by semen analysis (reference value: 88.3 +/- 7.3 %); details: in vivo

SMILES	CC50 at 24 h [1]	Activity (TM3)	other results
COc1cccc(NC(=O)c2cc3c(cc2OC)[C@@]2(C)Cc4cnc(C)nc4C(C)(C)C2CC3)c1 (mixture of isomers)	< 50 µM	173.6%	–
C#CCNC(=O)c1cc2c(cc1OC)[C@@]1(C)Cc3cnc(C)nc3C(C)(C)C1CC2 (mixture of isomers)	–	118.1%	–
COc1cc2c(cc1C(=O)Nc1ccc3[nH]ncc3c1)CCC1C(C)(C)c3nc(C)ncc3C[C@]21C (mixture of isomers)	< 50 µM	181.5%	–
Cc1ncc2c(n1)C(C)(C)C1CCc3ccc(OCc4cccc([N+](=O)[O-])c4)cc3[C@@]1(C)C2 (mixture of isomers)	–	122.4%	–
COc1cc2c(cc1N)CCC1C(C)(C)c3nc(C)ncc3C[C@]21C.Cl (mixture of isomers)	127 µM	146.6%	–
COc1cc2c(cc1C(=O)NN1CCCCC1)CCC1C(C)(C)c3nc(C)ncc3C[C@]21C (mixture of isomers)	–	111.5%	–
COc1cc2c(cc1C(=O)N(C)C)CCC1C(C)(C)c3nc(C)ncc3C[C@]21C (mixture of isomers)	> 200 µM	133.1%	–
C=CCNC(=O)c1cc2c(cc1OC)[C@@]1(C)Cc3cnc(C)nc3C(C)(C)C1CC2 (mixture of isomers)	–	142.9%	–
COc1ccc2c(c1)[C@@]1(C)Cc3cnc(C)nc3C(C)(C)C1CC2=O (mixture of isomers)	–	109.9%	–
COc1ccc2c(c1)[C@@]1(C)Cc3c[nH]nc3C(C)(C)C1CC2 (some centres not stated)	< 50 µM	116.6%	–
CNCc1cc2c(cc1OC)[C@@]1(C)Cc3cnc(C)nc3C(C)(C)C1CC2 (mixture of isomers)	124 µM	176.6%	–
CCCCNC(=O)c1cc2c(cc1OC)[C@@]1(C)Cc3cnc(C)nc3C(C)(C)C1CC2 (mixture of isomers)	< 50 µM	166.9%	–
Cc1ncc2c(n1)C(C)(C)C1CCc3ccc(OC(C)C)cc3[C@@]1(C)C2 (mixture of isomers)	–	129.3%	–
COc1cc2c(cc1C(=O)N1CCc3ccccc31)CCC1C(C)(C)c3nc(C)ncc3C[C@]21C (mixture of isomers)	–	116.9%	–
CCNC(=O)c1cc2c(cc1OC)[C@@]1(C)Cc3cnc(C)nc3C(C)(C)C1CC2 (mixture of isomers)	–	141.3%	–
COc1cc2c(cc1NC(C)=O)CCC1C(C)(C)c3nc(C)ncc3C[C@]21C (mixture of isomers)	> 200 µM	157.6%	–
CCOC(=O)c1[nH]nc2c1C[C@]1(C)c3cc(OC)ccc3CCC1C2(C)C (some centres not stated)	< 50 µM	160.9%	–
CCCCCNC(=O)c1cc2c(cc1OC)[C@@]1(C)Cc3cnc(C)nc3C(C)(C)C1CC2 (mixture of isomers)	< 50 µM	171.9%	–
COc1cc2c(cc1C(=O)NC1CCCC1)CCC1C(C)(C)c3nc(C)ncc3C[C@]21C (mixture of isomers)	–	122.4%	–
COc1ccc2c(c1)[C@@]1(C)Cc3nccnc3C(C)(C)C1CC2 (some centres not stated)	71.3 µM	134%	–
CCCNC(=O)c1cc2c(cc1OC)[C@@]1(C)Cc3cnc(C)nc3C(C)(C)C1CC2 (mixture of isomers)	–	140.9%	–
Cc1ncc2c(n1)C(C)(C)C1CCc3ccc(O)cc3[C@@]1(C)C2 (mixture of isomers)	–	124.4%	–
COc1ccc2c(c1)[C@@]1(C)Cc3cnc(C)nc3C(C)(C)C1C=C2 (mixture of isomers)	–	129.8%	–

SMILES	CC50 at 24 h [1]	Activity (TM3)	other results
COc1cc2c(cc1C(N)=O)CCC1C(C)(C)c3nc(C)ncc3C[C@]21C (mixture of isomers)	> 200 µM	169.8%	–
CCc1ccc(NC(=O)c2cc3c(cc2OC)[C@@]2(C)Cc4cnc(C)nc4C(C)(C)C2CC3)cc1 (mixture of isomers)	< 50 µM	167.8%	–
COc1cc2c(cc1C(=O)NO)CCC1C(C)(C)c3nc(C)ncc3C[C@]21C (mixture of isomers)	82.2 µM	189.5%	–
COc1cc2c(cc1C(=O)Nc1nccs1)CCC1C(C)(C)c3nc(C)ncc3C[C@]21C (mixture of isomers)	–	134.1%	–
C=CCOc1ccc2c(c1)[C@@]1(C)Cc3cnc(C)nc3C(C)(C)C1CC2 (mixture of isomers)	–	142%	–
COc1ccc2c(c1)[C@@]1(C)Cc3cnc(C)nc3C(C)(C)C1CC2 (mixture of isomers)	151 µM	145%	–
CCCOc1ccc2c(c1)[C@@]1(C)Cc3cnc(C)nc3C(C)(C)C1CC2 (mixture of isomers)	–	113.2%	–
C[C@]12CC[C@H]3[C@@H](CCC4=CC(=O)CC[C@@]43C)[C@@H]1CC[C@@H]2O [TESTOSTERONE]	–	–	Activity (Rattus norvegicus [2]): 1.64 g; Activity (Rattus norvegicus [3]): Active; Activity (Rattus norvegicus [4]): Active; Activity [5]: Non-Toxic; Activity (Rattus norvegicus [6]): 1.53 g; Activity (Rattus norvegicus [7]): 145.38 nmol/L; Ratio (Rattus norvegicus [8]): 2; inhibition (Rattus norvegicus [9]): Active; Activity [10]: 88.8%; Activity [11]: 79.8%
COc1ccc(-c2oc3c(CC=C(C)C)c(O[C@@H]4O[C@H](CO)[C@@H](O)[C@H](O)[C@H]4O)cc(O)c3c(=O)c2O[C@@H]2O[C@@H](C)[C@H](O)[C@@H](O)[C@H]2O)cc1 [ICARIIN]	> 200 µM	139.6%	–
COc1cc2c(cc1Br)CCC1C(C)(C)c3nc(C)ncc3C[C@]21C (mixture of isomers)	–	119.2%	–
C#CCOc1ccc2c(c1)[C@@]1(C)Cc3cnc(C)nc3C(C)(C)C1CC2 (mixture of isomers)	–	120.5%	–
Cc1ncc2c(n1)C(C)(C)C1CCc3ccc(OCc4ccccc4)cc3[C@@]1(C)C2 (mixture of isomers)	–	133%	–
COc1cc2c(cc1C(=O)O)CCC1C(C)(C)c3nc(C)ncc3C[C@]21C (mixture of isomers)	–	121.2%	–
COc1ccc2c(c1)[C@@]1(C)Cc3sc(N)nc3C(C)(C)C1CC2 (some centres not stated)	< 50 µM	110.9%	–
COc1cc2c(cc1C(=O)Nc1ccccc1)CCC1C(C)(C)c3nc(C)ncc3C[C@]21C (mixture of isomers)	< 50 µM	156.8%	–
COc1cc2c(cc1C(=O)NCc1cccc(Cl)c1)CCC1C(C)(C)c3nc(C)ncc3C[C@]21C (mixture of isomers)	< 50 µM	164.2%	–
COc1ccc2c(c1)[C@@]1(C)Cc3cnc(C)nc3C(C)(C)C1C/C2=N/O (mixture of isomers)	–	128.5%	–
COc1ccc2c(c1)[C@@]1(C)Cc3c([nH]c4ccccc34)C(C)(C)C1CC2 (some centres not stated)	< 50 µM	183.4%	–
COc1cc2c(cc1C(=O)NN)CCC1C(C)(C)c3nc(C)ncc3C[C@]21C (mixture of isomers)	> 200 µM	130%	–
COc1ccc2c(c1)[C@@]1(C)Cc3c(n[nH]c3C(=O)O)C(C)(C)C1CC2 (some centres not stated)	> 200 µM	128.2%	–
COc1cc2c(cc1C(=O)Nc1ncco1)CCC1C(C)(C)c3nc(C)ncc3C[C@]21C (mixture of isomers)	< 50 µM	176.9%	–
COc1cc2c(cc1C(=O)NCC(C)C)CCC1C(C)(C)c3nc(C)ncc3C[C@]21C (mixture of isomers)	–	114.7%	–
